From US12497394B2, “Fused-cyclic pyrazolone formamide compound and preparation method therefor, pharmaceutical composition and use thereof” (SHANGHAI INSTITUTE OF MATERIA MEDICA, CHINESE ACADEMY OF …, priority 2018, dated 2025)
Values joined by “and” are separate entries in the source; they are usually repeats but may differ in a detail not shown here. Identical values can stand only once. Like-named read-outs stand apart in the source and are kept apart here.

How the values were obtained:
[1] = molecular target: receptor tyrosine kinase c-Met (Homo sapiens, UniProt P08581); assay: In vitro c-Met kinase inhibitory activity; format: biochemical; details: two values per compound; for inhibition at 0.001 µM / inhibition at 0.01 µM / inhibition at 0.1 µM: read-out: c-Met Inhibitory rate (%)
Excerpt: Experimental Example 3: Study of In Vitro c-Met Kinase Inhibitory Activity
Since the screening results of 369 kinase profiles of compound DC621044 has shown that the compound has a certain inhibitory activity on c-Met. We further screened some compounds for their inhibitory activity on c-Met kinase.

[2] = molecular target: T1, receptor tyrosine kinase AXL (Homo sapiens, UniProt P30530); assay: Enzyme activity of receptor tyrosine kinase AXL (ELISA); format: biochemical; details: for inhibition at 0.001 µM: 1 nM; for inhibition at 0.001 µM / inhibition at 0.01 µM / inhibition at 0.1 µM: read-out: AXL activity Inhibitory rate(%); for inhibition at 0.01 µM: 10 nM; for inhibition at 0.1 µM: 100 nM
T1 construct: 50 μL of AXL kinase domain recombinant protein diluted in reaction buffer was added to start the reaction; made in house; host or cells: insect cells (baculovirus expression system)
T1 sequence (P30530 536-807 limits assumed): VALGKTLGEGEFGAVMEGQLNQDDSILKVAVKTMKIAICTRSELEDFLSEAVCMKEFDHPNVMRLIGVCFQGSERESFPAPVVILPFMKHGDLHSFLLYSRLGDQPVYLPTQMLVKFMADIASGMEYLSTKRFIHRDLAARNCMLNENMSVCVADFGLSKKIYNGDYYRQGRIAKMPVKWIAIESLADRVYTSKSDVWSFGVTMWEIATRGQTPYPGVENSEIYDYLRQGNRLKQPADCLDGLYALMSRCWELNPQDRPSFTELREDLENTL
Method: Detection method: Enzyme-linked immunosorbent assay (ELISA)
Tested receptor tyrosine kinase: AXL
The full-wavelength microplate reader for experiment reading was a product of Molecular Device, model: SpectraMax 190; the experiment water was distilled water produced by Sinopharm Group.
Compound preparation: The compounds were centrifuged at 12,000 g for 5 min, and DMSO was added to prepare a 10^−2M stock solution, vortexed evenly and sonicated for 10 min for use, and stored at −40° C. During the test, the compound was diluted from the stock solution to 100 times the tested concentration with DMSO (the DMSO concentration in the system was 1%).
1. […] Discard the liquid from the well. The plate was washed and washed three times with T-PBS (0.1% Tween-20 in potassium-free PBS, 200 μL/well) for 5 minutes each time.
2. 49 μL of ATP solution diluted with reaction buffer (50 mM HEPES pH 7.4, 50 mM MgCl2, 0.5 mM MnCl2, 0.2 mM Na3VO4, 1 mM DTT) was added to each well, and […] of the tested compound was added to each well, and then 50 μL of AXL kinase domain recombinant protein diluted in reaction buffer was added to start the reaction. Two control wells without ATP were added in each experiment. (100 rpm) Reacted in 37° C. shaker for 1 hour. Discard the liquid from the well, and the plate was washed with T-PBS for three times.
3. […] Discard the liquid from the well, and the plate was washed with T-PBS for three times.
4. The horseradish peroxidase-labeled goat anti-mouse second antibody dilution (antibody diluted 1:2000 with BSA 5 mg/mL in T-PBS), 100 μL/well, and reacted in 37° C. shaker for 0.5 hours. Discard the liquid from the well, and the plate was washed with T-PBS for three times.
6. The reaction was quenched with 50 μL/well 2M […], and read at 490 nm using a tunable microplate reader VERSAmax.
The IC50 values were obtained by four-parameter regression analysis using the software supplied with the microplate reader.

[3] = system: BaF3/TEL-AXL cells; assay: Proliferation of BaF3/TEL-AXL cells; format: cell-based; details: for inhibition at 0.001 µM / inhibition at 0.01 µM / inhibition at 0.1 µM: BaF3/TEL-AXL
Excerpt: Experimental Example 4: Effect of the Compound on the Proliferation Effect of BaF3/TEL-AXL Cells
Based on the above-mentioned enzyme activity research results, we further explored the effect of the compound on cell proliferation mediated by receptor tyrosine kinase AXL.

[4] = 1 nM, two values per compound, 0.001 µM
[5] = 10 nM, two values per compound, 0.01 µM
[6] = 100 nM, two values per compound, 0.1 µM
[7] = 1 nM, two values per compound, read-out: BaF3/TEL-AXL proliferation Inhibitory rate (%)
[8] = 10 nM, two values per compound, read-out: BaF3/TEL-AXL proliferation Inhibitory rate (%)
[9] = 100 nM, two values per compound, read-out: BaF3/TEL-AXL proliferation Inhibitory rate (%)
[10] = concentration of 1 nM, read-out: inhibited the proliferation of BaF3/TEL-AXL cells

Sequence of receptor tyrosine kinase c-Met (P08581 25-1390): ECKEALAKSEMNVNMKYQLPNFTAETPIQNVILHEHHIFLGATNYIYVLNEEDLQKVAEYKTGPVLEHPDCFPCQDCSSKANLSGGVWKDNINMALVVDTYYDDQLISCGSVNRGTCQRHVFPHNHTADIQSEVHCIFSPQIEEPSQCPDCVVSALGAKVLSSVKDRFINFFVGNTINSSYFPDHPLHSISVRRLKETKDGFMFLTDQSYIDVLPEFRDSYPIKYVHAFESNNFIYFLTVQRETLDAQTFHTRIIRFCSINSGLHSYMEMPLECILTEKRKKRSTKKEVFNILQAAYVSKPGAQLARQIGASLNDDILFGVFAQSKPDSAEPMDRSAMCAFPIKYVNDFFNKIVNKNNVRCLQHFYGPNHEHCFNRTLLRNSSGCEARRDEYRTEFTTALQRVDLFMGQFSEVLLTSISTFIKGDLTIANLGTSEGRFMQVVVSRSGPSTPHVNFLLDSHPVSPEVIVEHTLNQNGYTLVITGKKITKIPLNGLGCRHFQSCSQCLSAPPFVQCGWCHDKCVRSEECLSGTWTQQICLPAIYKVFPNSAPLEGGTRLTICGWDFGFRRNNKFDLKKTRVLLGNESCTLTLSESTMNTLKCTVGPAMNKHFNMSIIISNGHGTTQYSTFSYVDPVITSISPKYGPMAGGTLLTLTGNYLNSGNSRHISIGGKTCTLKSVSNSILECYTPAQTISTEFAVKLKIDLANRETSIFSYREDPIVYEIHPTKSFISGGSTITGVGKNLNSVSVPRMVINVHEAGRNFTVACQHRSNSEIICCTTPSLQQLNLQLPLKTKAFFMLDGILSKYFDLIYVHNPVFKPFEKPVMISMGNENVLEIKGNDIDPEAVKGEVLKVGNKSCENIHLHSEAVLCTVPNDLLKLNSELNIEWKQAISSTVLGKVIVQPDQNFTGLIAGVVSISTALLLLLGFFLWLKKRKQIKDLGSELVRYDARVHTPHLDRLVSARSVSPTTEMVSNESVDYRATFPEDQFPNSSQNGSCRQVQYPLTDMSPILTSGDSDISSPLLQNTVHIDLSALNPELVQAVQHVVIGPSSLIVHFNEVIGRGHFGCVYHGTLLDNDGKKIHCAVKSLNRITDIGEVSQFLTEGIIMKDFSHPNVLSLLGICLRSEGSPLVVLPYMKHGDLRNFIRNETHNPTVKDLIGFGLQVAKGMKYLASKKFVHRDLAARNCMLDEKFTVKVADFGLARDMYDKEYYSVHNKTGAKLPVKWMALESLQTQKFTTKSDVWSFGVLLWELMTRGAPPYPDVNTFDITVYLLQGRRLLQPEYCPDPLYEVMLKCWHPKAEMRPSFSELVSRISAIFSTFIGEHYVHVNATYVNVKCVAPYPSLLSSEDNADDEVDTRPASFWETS

c-Met Inhibitory rate (%) ([1]; 1 nM, 0.001 µM)	inhibition at 0.001 µM ([1]; 1 nM) [%]	c-Met Inhibitory rate (%) ([1]; 10 nM, 0.01 µM)	inhibition at 0.01 µM ([1]; 10 nM) [%]	c-Met Inhibitory rate (%) ([1]; 100 nM, 0.1 µM)	inhibition at 0.1 µM ([1]; 100 nM) [%]	IC50 [2] [nM]	inhibition at 0.001 µM [2] [%]	inhibition at 0.01 µM [2] [%]	inhibition at 0.1 µM [2] [%]	Compound	BaF3/TEL-AXL proliferation Inhibitory rate (%) [3, 4] [%]	BaF3/TEL-AXL proliferation Inhibitory rate (%) [3, 5] [%]	BaF3/TEL-AXL proliferation Inhibitory rate (%) [3, 6] [%]	inhibition at 0.001 µM [3, 7] [%]	inhibition at 0.01 µM [3, 8] [%]	inhibition at 0.1 µM [3, 9] [%]	inhibition at 0.001 µM [3, 10] [%]
53.5	40.5	80.5%	66.8	100	99.4	8.7 ± 1	29.9	72.5	100	COCCOc1cc2ncnc(Oc3ccc(NC(=O)c4c5n(n(-c6cc(F)ccc6F)c4=O)CCCC5)cc3F)c2cc1OCCOC [DC621024, 1-(2,5-difluorophenyl)-N-(4-((6,7-bis(2-methoxyethoxy)quinazolin-4-yl)oxy)-3-fluorophenyl)-2-oxo-1,2,4,5,6,7-hexahydropyrazolo[1,5-a]pyridine-3-formamide]	75.0	80.5	81.3	79.8	81	85	> 70
55.2	39.5	75.9%	62.4	97.5	93.9	–	8.2	54.2	100	COCCOc1cc2ncnc(Oc3ccc(NC(=O)c4c5n(n(-c6ccccc6)c4=O)CCCC5)c(F)c3)c2cc1OCCOC [DC621051, N-(4-((6,7-bis(2-methoxyethoxy)quinazolin-4-yl)oxy)-2-fluorophenyl)-2-oxo-1-phenyl-1,2,4,5,6,7-hexahydropyrazolo[1,5-a]pyridine-3-formamide]	82.9	85.9	86.6	84.7	85.8	86.7	> 70
60.0	61.1	48.9% and 69.6%	–	100	94.1	–	12.2	58.2	95.9	COCCOc1cc2ncnc(Oc3ccc(NC(=O)c4c5n(n(-c6cc(F)ccc6F)c4=O)CCCC5)c(F)c3)c2cc1OCCOC [DC621054, 1-(2,5-difluorophenyl)-N-(4-((6,7-bis(2-methoxyethoxy)quinazolin-4-yl)oxy)-2-fluorophenyl)-2-oxo-1,2,4,5,6,7-hexahydropyrazolo[1,5-a]pyridine-3-formamide]	81.8	82.5	86.1	79.6	82.8	84.7	–
51.3	34	64.0%	55.2	95.9	94.6	–	16	55.1	91.9	COCCOc1cc2ncnc(Oc3ccc(NC(=O)c4c5n(n(-c6ccccc6F)c4=O)CCCC5)c(F)c3)c2cc1OCCOC [DC621057, N-(4-((6,7-bis(2-methoxyethoxy)quinazolin-4-yl)oxy)-2-fluorophenyl)-1-(2-fluorophenyl)-2-oxo-1,2,4,5,6,7-hexahydropyrazolo[1,5-a]pyridine-3-formamide]	76.6	–	86.0	69.5	83.2	87.5	–
–	–	58.1%	43.9	95.4	91.9	–	21.5	54.4	84.2	COCCOc1cc2ncnc(Oc3ccc(NC(=O)c4c5n(n(-c6ccc(F)cc6)c4=O)CCCC5)c(F)c3)c2cc1OCCOC [DC621060, N-(4-((6,7-bis(2-methoxyethoxy)quinazolin-4-yl)oxy)-2-fluorophenyl)-1-(4-fluorophenyl)-2-oxo-1,2,4,5,6,7-hexahydropyrazolo[1,5-a]pyridine-3-formamide]	66.3	73.4	85.3	64.5	71	85.4	–
32.4	17.7	56.2%	46.4	99.2	94.8	–	11.5	60.5	91.8	O=C(Nc1ccc(Oc2ncnc3cc4c(cc23)OCCOCCOCCO4)c(F)c1)c1c2n(n(-c3cc(F)ccc3F)c1=O)CCCC2 [DC621063, 1-(2,5-difluorophenyl)-N-(3-fluoro-4-((7,8,10,11,13,14-hexahydro-[1,4,7,10]tetraoxacyclododecane[2,3-g]quinazolin-4-yl)oxy)phenyl)-2-oxo-1,2,4,5,6,7-hexahydropyrazolo[1,5-a]pyridine-3-formamide]	61.0	66.0	78.2	47.8	67.2	82.3	–
–	–	–	–	–	–	–	8.6	54.5	89	O=C(Nc1ccc(Oc2ncnc3cc4c(cc23)OCCOCCOCCO4)c(F)c1)c1c2n(n(-c3ccc(F)cc3)c1=O)CCCC2 [DC621067, N-(3-fluoro-4-((7,8,10,11,13,14-hexahydro-[1,4,7,10]tetraoxacyclododecane [2,3-g]quinazolin-4-yl)oxy)phenyl)-1-(4-fluorophenyl)-2-oxo-1,2,4,5,6,7-hexahydropyrazolo[1,5-a]pyridine-3-formamide]	74.8	85.4	83.0	80.6	87.2	80.8	–
–	–	63.7% and 38.0%	–	89.1	94.4	–	18.9	59.2	93	COCCOc1cc2ncnc(Oc3ccc(NC(=O)c4c5n(n(-c6ccc(F)cc6)c4=O)CCCC5)cc3Cl)c2cc1OCCOC [DC621100, N-(4-((6,7-bis(2-methoxyethoxy)quinazolin-4-yl)oxy)-3-chlorophenyl)-1-(4-fluorophenyl)-2-oxo-1,2,4,5,6,7-hexahydropyrazolo[1,5-a]pyridine-3-formamide]	–	–	–	–	–	–	–
